Assay results published in BindingDB's records for doi:10.1002/cbic.200400084 (Laboratorium FÜR Organische Chemie, 2004).

Target: T1, Catechol O-methyltransferase (Rattus norvegicus, UniProt P22734)
T1 sequence (P22734 whole entry): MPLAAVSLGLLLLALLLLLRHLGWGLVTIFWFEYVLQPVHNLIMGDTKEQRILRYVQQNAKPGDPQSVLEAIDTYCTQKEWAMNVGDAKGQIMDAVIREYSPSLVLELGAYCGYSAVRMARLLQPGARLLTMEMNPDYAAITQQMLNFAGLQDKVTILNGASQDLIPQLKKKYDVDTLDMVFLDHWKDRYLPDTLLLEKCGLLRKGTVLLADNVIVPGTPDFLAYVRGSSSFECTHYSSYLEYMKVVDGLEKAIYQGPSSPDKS
Test: Radiochemical Assay
Conditions: 37 °C
Protocol: The binding affinity of the inhibitors towards Catechol O-methyltransferase in the presence of Mg2+ ions were determined by using a radiochemical assay.

Molecule `Cc1ccc(S(=O)(=O)c2cc(O)c(O)c(C(=O)NC/C=C/[C@H]3O[C@@H](n4cnc5c(N)ncnc54)[C@H](O)C3O)c2)cc1` (stereo partly drawn) [Bi-substrate Inhibitor, 1p] has an IC50 of 213 nM.

In the case of `Nc1ncnc2c1ncn2[C@@H]1O[C@H](/C=C/CNC(=O)c2cc(Br)cc(O)c2O)[C@@H](O)[C@H]1O` [Bi-substrate Inhibitor, 1f], the IC50 is reported as 28 nM.

With `Nc1ncnc2c1ncn2[C@@H]1O[C@H](/C=C/CNC(=O)c2cc(C(=O)c3ccncc3)cc(O)c2O)[C@@H](O)[C@H]1O` [Bi-substrate Inhibitor, 1l] the IC50 was 42 nM.

Molecule `Nc1ncnc2c1ncn2[C@@H]1O[C@H](/C=C/CNC(=O)c2cc(-c3ccncc3)cc(O)c2O)[C@@H](O)[C@H]1O` [Bi-substrate Inhibitor, 1d] has an IC50 of 23 nM.

`CN(C)C(=O)/C=C/c1cc(O)c(O)c(C(=O)NC/C=C/[C@H]2O[C@@H](n3cnc4c(N)ncnc43)[C@H](O)[C@@H]2O)c1` [Bi-substrate Inhibitor, 1o] showed an IC50 of 97 nM.

Work on `Nc1ncnc2c1ncn2[C@@H]1O[C@H](/C=C/CNC(=O)c2cc(C(=O)C(F)(F)F)cc(O)c2O)[C@@H](O)[C@H]1O` [Bi-substrate Inhibitor, 1k] yielded an IC50 of 39 nM.

`Nc1ncnc2c1ncn2[C@@H]1O[C@H](/C=C/CNC(=O)c2cc([N+](=O)[O-])cc(O)c2O)[C@@H](O)[C@H]1O` [Bi-substrate Inhibitor, 1a] showed an IC50 of 9 nM.

For `Cc1ccc(-c2cc(O)c(O)c(C(=O)NC/C=C/[C@H]3O[C@@H](n4cnc5c(N)ncnc54)[C@H](O)[C@@H]3O)c2)cc1` [Bi-substrate Inhibitor, 1c], the IC50 was 23 nM.

`Cc1ccc(Cc2cc(O)c(O)c(C(=O)NC/C=C/[C@H]3O[C@@H](n4cnc5c(N)ncnc54)[C@H](O)C3O)c2)cc1` (stereo partly drawn) [Bi-substrate Inhibitor, 1q] was tested, and the IC50 was 608 nM.

For `Nc1ncnc2c1ncn2[C@@H]1O[C@H](/C=C/CNC(=O)c2cccc(O)c2O)C(O)[C@H]1O` (stereo partly drawn) [Bi-substrate Inhibitor, 1t], the IC50 was 2600 nM.

In the case of `Nc1ncnc2c1ncn2[C@@H]1O[C@H](/C=C/CNC(=O)c2cc(-c3nccs3)cc(O)c2O)[C@@H](O)[C@H]1O` [Bi-substrate Inhibitor, 1e], the IC50 is reported as 27 nM.

`Cc1ccc(C(=O)c2cc(O)c(O)c(C(=O)NC/C=C/[C@H]3O[C@@H](n4cnc5c(N)ncnc54)[C@H](O)[C@@H]3O)c2)cc1` [Bi-substrate Inhibitor, 1i] showed an IC50 of 34 nM.

`Nc1ncnc2c1ncn2[C@@H]1O[C@H](/C=C/CNC(=O)c2cc(C(=O)C3CCCCC3)cc(O)c2O)[C@@H](O)[C@H]1O` [Bi-substrate Inhibitor, 1n] showed an IC50 of 83 nM.

`CN(C)C(=O)c1cc(O)c(O)c(C(=O)NC/C=C/[C@H]2O[C@@H](n3cnc4c(N)ncnc43)[C@H](O)C2O)c1` (stereo partly drawn) [Bi-substrate Inhibitor, 1s] showed an IC50 of 2000 nM.

`Nc1ncnc2c1ncn2[C@@H]1O[C@H](/C=C/CNC(=O)c2cc(Cl)cc(O)c2O)[C@@H](O)[C@H]1O` [Bi-substrate Inhibitor, 1m] showed an IC50 of 44 nM.

With `Nc1ncnc2c1ncn2[C@@H]1O[C@H](/C=C/CNC(=O)c2cc(-c3ccc(F)cc3)cc(O)c2O)[C@@H](O)[C@H]1O` [Bi-substrate Inhibitor, 1b] the IC50 was 21 nM.

In the case of `Nc1ncnc2c1ncn2[C@@H]1O[C@H](/C=C/CNC(=O)c2cc(C(F)(F)F)cc(O)c2O)[C@@H](O)[C@H]1O` [Bi-substrate Inhibitor, 1j], the IC50 is reported as 35 nM.

For `N#Cc1cc(O)c(O)c(C(=O)NC/C=C/[C@H]2O[C@@H](n3cnc4c(N)ncnc43)[C@H](O)[C@@H]2O)c1` [Bi-substrate Inhibitor, 1h], the IC50 was 29 nM.
